Assay results published in US20230047788A1, “COMPOSITIONS COMPRISING 5-CHOLESTEN-3, 25-DIOL, 3-SULFATE (25HC3S) OR PHARMACEUTICALLY ACCEPTABLE SALT THEREOF AND AT LEAST ONE CYCLIC OLIGOSACCHARIDE” (Virginia Commonwealth University, priority 2016, published 2023).

Tests used:
[1] = Osmolality of 30 mg/mL 25HC3S, 250 mg/mL HPbCD, 10 mM phosphate solution; format: physicochemical; settings: 30 mg/mL 25HC3S sodium salt, 10 mM sodium phosphate buffer in water
Procedure: The optimal concentration of HPbCD to solubilize a high amount of 25HC3S, and to contain a small amount of buffer (10 mM phosphate buffer) to minimize pH changes on stability, is 250 mg/mL HPbCD. The solution of 30 mg/mL 25HC3S sodium salt, 250 mg/mL HPbCD with 10 mM sodium phosphate buffer in water has an osmolality of approximately 320 mmol/kg. Isotonic solutions range from 270-340 mmol/kg. Higher concentrations of HPbCD greater than 250 mg/mL with higher than 30 mg/mL concentrations of 25HC3S lead to hypertonic solutions. Hypertonic solutions can cause pain upon subcutaneous and intramuscular injection. Conversely, concentrations of HPbCD much less than 250 mg/mL with much less than 30 mg/mL concentrations of 25HC3S require the addition of an isotonic agent, such as sodium chloride or mannitol, to bring the isotonicity into the expected range for a parenteral dosage form.

[2] = Stability testing for 25HC3S sodium salt for injection, 30 mg/mL after constitution; format: physicochemical; settings: for Degree of Coloration of Liquids: BY = brown-yellow
Procedure: Sterile water for injection, USP (6.14 kg) was added into a 10L stainless steel vessel. […] HPbCD, NF (1851.85 g) was added in small portions over 15 minutes with slow stirring into the beaker. The stirring was increased to 250-350 rpm for an additional minimum 30 minutes to form a clear solution. The solution was filtered through a 0.22 micron filter. Filtered vehicle (7 mL) was filled into 10 mL glass vials, which were sealed with 20 mm stoppers, and crimp sealed. The vehicle vials were sterilized with gamma irradiation at approximately 28-32 kGy.
25HC3S sodium salt was micronized by passing through a Fluid Energy Model 00 Jet-O-Mizer Jet Mill. Micronized drug substance (186 mg) was added into a 10 mL glass vial, sealed with 20 mm stoppers, and crimp sealed. The 25HC3S powder vials were sterilized with gamma irradiation at approximately 28-32 kGy
Sterile vehicle (6.0 mL) comprised of 250 mg/mL HPbCD and 10 mM phosphate buffer was added to a vial of 25HC3S micronized powder. The mixture was shaken for 15 minutes to prepare a solution resulting in a 25HC3S sodium salt concentration of 30 mg/mL (allowing for 3% dilution upon the dissolution of drug).
Stability data for 6 months at 2-8° C. to 40° C./75% RH for 25HC3S for injection, 30 mg/mL after constitution, are listed in Table 5. This lot of 25HC3S powder, and the vehicle used to constitute it, were gamma sterilized at approximately 28-32 kGy. The data supports a 12 month retest date when stored at 2-8° C.

C[C@H](CCCC(C)(C)O)[C@H]1CC[C@H]2[C@@H]3CC=C4C[C@@H](OS(=O)(=O)[O-])CC[C@]4(C)[C@H]3CC[C@]12C.[Na+] [25HC3S, 5-cholesten-3, 25-diol, 3-sulfate]
Osmolality [1]: approximately 320 mmol/kg
% Individual Unspecified Degradant RRT = 0.60 ([2]; 2-8°C, 0 months): 0.2%
% Individual Unspecified Degradant RRT = 0.64 ([2]; 2-8°C, 0 months): 0.4%
% Individual Unspecified Degradant RRT = 2.74 ([2]; 2-8°C, 0 months): 0.4%
% Individual Unspecified Degradant RRT = 3.77 ([2]; 2-8°C, 0 months): 0.3%
% Total Degradation Products ([2]; 2-8°C, 0 months): 2.5%
% Water Content ([2]; 2-8°C, 0 months): 6.23%
Appearance ([2]; 2-8°C, 0 months): White powder
Assay (label strength of 30 mg/mL) ([2]; 2-8°C, 0 months): Mean: 98.7%
Osmolality ([2]; 2-8°C, 0 months): 321 mmol/kg
pH ([2]; 2-8°C, 0 months): 6.62
Degree of Coloration of Liquids ([2]; 2-8°C, 0 months): BY6
% Individual Unspecified Degradant RRT = 0.60 ([2]; 2-8°C, 3 months): 0.2%
% Individual Unspecified Degradant RRT = 0.64 ([2]; 2-8°C, 3 months): 0.4%
% Individual Unspecified Degradant RRT = 2.74 ([2]; 2-8°C, 3 months): 0.4%
% Individual Unspecified Degradant RRT = 3.77 ([2]; 2-8°C, 3 months): 0.3%
% Total Degradation Products ([2]; 2-8°C, 3 months): 2.8%
% Water Content ([2]; 2-8°C, 3 months): 5.62%
Assay (label strength of 30 mg/mL) ([2]; 2-8°C, 3 months): 96.7%
Osmolality ([2]; 2-8°C, 3 months): 322 mmol/kg
pH ([2]; 2-8°C, 3 months): 5.82
% Individual Unspecified Degradant RRT = 0.60 ([2]; 2-8°C, 6 months): 0.3%
% Individual Unspecified Degradant RRT = 0.64 ([2]; 2-8°C, 6 months): 0.4%
% Individual Unspecified Degradant RRT = 2.74 ([2]; 2-8°C, 6 months): 0.4%
% Individual Unspecified Degradant RRT = 3.77 ([2]; 2-8°C, 6 months): 0.3%
% Total Degradation Products ([2]; 2-8°C, 6 months): 3.0%
% Water Content ([2]; 2-8°C, 6 months): 6.13%
Assay (label strength of 30 mg/mL) ([2]; 2-8°C, 6 months): 100.0%
Osmolality ([2]; 2-8°C, 6 months): 323 mmol/kg
pH ([2]; 2-8°C, 6 months): 5.34
Degree of Coloration of Liquids ([2]; 2-8°C, 6 months): BY6
% Individual Unspecified Degradant RRT = 0.60 ([2]; 25°C/60% RH, 1 month): 0.3%
% Individual Unspecified Degradant RRT = 0.64 ([2]; 25°C/60% RH, 1 month): 0.4%
% Individual Unspecified Degradant RRT = 2.74 ([2]; 25°C/60% RH, 1 month): 0.4%
% Individual Unspecified Degradant RRT = 3.77 ([2]; 25°C/60% RH, 1 month): 0.3%
% Total Degradation Products ([2]; 25°C/60% RH, 1 month): 2.9%
% Water Content ([2]; 25°C/60% RH, 1 month): 5.29%
Assay (label strength of 30 mg/mL) ([2]; 25°C/60% RH, 1 month): 98.3%
Osmolality ([2]; 25°C/60% RH, 1 month): 330 mmol/kg
pH ([2]; 25°C/60% RH, 1 month): 5.18
% Individual Unspecified Degradant RRT = 0.60 ([2]; 25°C/60% RH, 3 months): 0.3%
% Individual Unspecified Degradant RRT = 0.64 ([2]; 25°C/60% RH, 3 months): 0.4%
% Individual Unspecified Degradant RRT = 2.74 ([2]; 25°C/60% RH, 3 months): 0.4%
% Individual Unspecified Degradant RRT = 3.77 ([2]; 25°C/60% RH, 3 months): 0.3%
% Total Degradation Products ([2]; 25°C/60% RH, 3 months): 2.9%
% Water Content ([2]; 25°C/60% RH, 3 months): 5.40%
Assay (label strength of 30 mg/mL) ([2]; 25°C/60% RH, 3 months): 96.0%
Osmolality ([2]; 25°C/60% RH, 3 months): 322 mmol/kg
Degree of Coloration of Liquids ([2]; 25°C/60% RH, 3 months): BY5
% Individual Unspecified Degradant RRT = 0.60 ([2]; 25°C/60% RH, 6 months): 0.4%
% Individual Unspecified Degradant RRT = 0.64 ([2]; 25°C/60% RH, 6 months): 0.4%
% Individual Unspecified Degradant RRT = 2.74 ([2]; 25°C/60% RH, 6 months): 0.4%
% Individual Unspecified Degradant RRT = 3.77 ([2]; 25°C/60% RH, 6 months): 0.3%
% Total Degradation Products ([2]; 25°C/60% RH, 6 months): 3.0%
% Water Content ([2]; 25°C/60% RH, 6 months): 5.65%
Assay (label strength of 30 mg/mL) ([2]; 25°C/60% RH, 6 months): 96.2%
Osmolality ([2]; 25°C/60% RH, 6 months): 319 mmol/kg
Degree of Coloration of Liquids ([2]; 25°C/60% RH, 6 months): BY5
% Individual Unspecified Degradant RRT = 0.60 ([2]; 40°C/75% RH, 1 month): 0.3%
% Individual Unspecified Degradant RRT = 0.64 ([2]; 40°C/75% RH, 1 month): 0.4%
% Individual Unspecified Degradant RRT = 2.74 ([2]; 40°C/75% RH, 1 month): 0.4%
% Individual Unspecified Degradant RRT = 3.77 ([2]; 40°C/75% RH, 1 month): 0.3%
% Total Degradation Products ([2]; 40°C/75% RH, 1 month): 2.9%
% Water Content ([2]; 40°C/75% RH, 1 month): 5.03%
Assay (label strength of 30 mg/mL) ([2]; 40°C/75% RH, 1 month): 95.8%
Osmolality ([2]; 40°C/75% RH, 1 month): 330 mmol/kg
% Individual Unspecified Degradant RRT = 0.60 ([2]; 40°C/75% RH, 3 months): 0.3%
% Individual Unspecified Degradant RRT = 0.64 ([2]; 40°C/75% RH, 3 months): 0.4%
% Individual Unspecified Degradant RRT = 2.74 ([2]; 40°C/75% RH, 3 months): 0.5%
% Individual Unspecified Degradant RRT = 3.77 ([2]; 40°C/75% RH, 3 months): 0.4%
% Total Degradation Products ([2]; 40°C/75% RH, 3 months): 3.3%
% Water Content ([2]; 40°C/75% RH, 3 months): 5.33%
Assay (label strength of 30 mg/mL) ([2]; 40°C/75% RH, 3 months): 96.2%
Osmolality ([2]; 40°C/75% RH, 3 months): 327 mmol/kg
% Individual Unspecified Degradant RRT = 0.60 ([2]; 40°C/75% RH, 6 months): 0.4%
% Individual Unspecified Degradant RRT = 0.64 ([2]; 40°C/75% RH, 6 months): 0.5%
% Individual Unspecified Degradant RRT = 2.74 ([2]; 40°C/75% RH, 6 months): 0.4%
% Individual Unspecified Degradant RRT = 3.77 ([2]; 40°C/75% RH, 6 months): 0.3%
% Total Degradation Products ([2]; 40°C/75% RH, 6 months): 2.8%
% Water Content ([2]; 40°C/75% RH, 6 months): 6.34%
Assay (label strength of 30 mg/mL) ([2]; 40°C/75% RH, 6 months): 97.1%
Osmolality ([2]; 40°C/75% RH, 6 months): 324 mmol/kg
retest date supported by the data ([2]; stored at 2-8°C): 12 month
